Data reported in patent US10857155B2, “Compounds targeting proteins, compositions, methods, and uses thereof” (BioTheryX, Inc., priority 2017, dated 2020).

Legend:
Assay type in all cases: cell-based
[1] = tested on: IL-1β; test: IL-1 beta in LPS-induced PBMCs / CD14+ monocytes, Meso Scale assay; settings: 0.1 μM
Description: (§1) FIG. 2 represents the activity against IL-1-beta in CD14 monocytes, plated in 96 well plates and pretreated with Compounds 1, 2, or 3, or pomalidomide, for 1 h and then induced with 100 ng/mL LPS for 18-24 h. Cytokines were measured according to MesoScale protocol. Negative control wells were treated with DMSO. Compound activity was measured as a percentage of LPS-induced activity.
(§2) Either frozen primary blood mononuclear cells (PBMCs) or frozen CD14+ mobilized peripheral blood monocytes were purchased from AllCells (PB003F, Normal Peripheral Blood MNC (Alameda, Calif.)). Cells were quick thawed, washed 1-time with RPMI-1640 (10% FBS/1% Pen-Strep) and plated in 96 well plates at 200,000 cells per well. Cells were pretreated with DMSO only, pomalidomide or the indicated compounds for 1 h and then induced with 100 ng/mL lipopolysaccharide (LPS) for 18-24 h. The supernatant was analyzed for IL-1 beta, IL-6, and TNF-alpha, using Meso Scale assay according to manufacturer's protocol. The negative control wells were treated with DMSO.
(§3) Compound activity is measured as fold difference from the DMSO control. Compounds 1, 2, and 3 each reduced expression of IL-1-b in LPS-stimulated PBMCs by over 80% at 1 uM, relative to a just under 80% reduction with pomalidomide at 10 μM (FIG. 2).

[2] = target: T1, GSPT1 (Homo sapiens, UniProt P15170); test: Western blot analysis of GSPT1 protein levels in Jurkat cells; settings: DMSO = 100.00; for GSPT1 protein level (% of DMSO control) at 0.1 µM: 100 nM compound; for GSPT1 protein level (% of DMSO control) at 1 µM: 1 uM compound
T1 construct: Whole cell extract was prepared with RIPA buffer according to manufacturer's protocol; endogenous in cells; host or cells: Jurkat cells
T1 sequence (P15170 whole entry): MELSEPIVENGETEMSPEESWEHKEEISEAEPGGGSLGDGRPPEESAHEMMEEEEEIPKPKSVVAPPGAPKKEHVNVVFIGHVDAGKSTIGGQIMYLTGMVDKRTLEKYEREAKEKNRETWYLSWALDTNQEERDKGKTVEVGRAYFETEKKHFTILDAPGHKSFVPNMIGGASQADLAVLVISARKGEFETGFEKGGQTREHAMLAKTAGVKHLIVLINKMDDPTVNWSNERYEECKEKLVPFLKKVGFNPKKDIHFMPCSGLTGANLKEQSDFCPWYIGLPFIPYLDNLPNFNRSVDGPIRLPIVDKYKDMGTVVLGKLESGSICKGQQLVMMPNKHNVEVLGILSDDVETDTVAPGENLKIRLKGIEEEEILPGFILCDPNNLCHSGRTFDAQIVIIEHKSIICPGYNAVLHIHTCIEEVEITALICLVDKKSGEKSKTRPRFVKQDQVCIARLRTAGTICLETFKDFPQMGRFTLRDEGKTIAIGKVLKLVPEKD
Description: FIG. 1 represents the activity against CK1α, ikaros, and GPST1 in Jurkat cells, plated in 96 well plates. Cells were pretreated with compounds for 4 h and then lysed and protein levels measure via Western blots. The negative control wells were treated with DMSO. Cells were treated with the indicated compound at the indicated concentration. Compound activity is measured as a decrease in GSPT1 protein levels.
Western Blot Protocol: Cell lines were grown in RPMI 1640 supplemented with streptomycin, penicillin and 10% fetal bovine serum.
Jurkat cells were cultured at approximately 10^6 cells per mL, DMSO or the indicated compound was added to the cells and allowed to incubate for 6-8 h. Whole cell extract was prepared with RIPA buffer according to manufacturer's protocol (Pierce (Dallas, Tex.)). Briefly, ˜2×10^6 cells were washed once in PBS, the cell pellet was resuspended in RIPA buffer and allowed to incubate for 15 min on ice. Cell debris was removed by centrifugation and the cleared whole cell lysate was transferred to a new tube for further analysis.
For western blot analysis, whole cell extracts were separated on 4-12% SDS-polyacrylamide gels, transferred to nitrocellulose and probed with the indicated primary antibodies. Membranes were subsequently washed and probed with the appropriate horseradish peroxidase (HRP)-conjugated secondary antibody. Membranes were subsequently washed and probed with the appropriate IRDye secondary antibodies (LI-COR). The signal was detected using the Odyssey Imaging System (LI-COR).

[3] = tested on: IL-2; test: IL-2 in PBMCs on anti-human CD3 (OKT3) coated plates, Mesoscale analysis; settings: PBMC, 24 h, 0.1 μM, relative to DMSO control, read-out: Fold Change IL-2
Description: For the IL-2 analysis, 96 well plates were precoated with 1 μg/mL anti-human CD3 antibody (OKT3, eBioscience Inc., San Diego, Calif.). After washing with PBS, compounds were added (50 μL/well) followed by PBMCs diluted at 3-4 million cells/mL (150 μL/well). Plates were incubated for 24 h and the supernatants collected for Mesoscale IL-2 analysis.
as §3

[4] = tested on: H1048 cells; test: Cell viability assay (CellTiter-Glo), H1048 cells; settings: Homo sapiens, NCI-H1048, 72 h, 3 days; for viability at 1 µM: H1048, 1 μM; for viability at 10 µM: H1048, 10 μM
Description: (§4) Molm-13 cells were cultivated in RPMI-1640 (10% FBS/1% pen-strep) and were plated in white walled 96-well plates at 20,000 cells/well. H1048 cells were cultured in DMEM:F12 media supplemented with 5% fetal bovine serum, insulin, transferrin, sodium selenite, hydrocortisone, estradiol, penicillin and streptomycin, and were plated in white walled 96-well plates at 20,000 cells/well.
(§5) Cells were treated with compound at the indicated concentration or DMSO (control) and the cultures were incubated for 3 days at 37° C. and 5% CO2. Following the incubation period, 100 μL of CellTiterGlow (CTG) reagent (CellTiter-Glo® Luminescent Cell Viability Assay, Promega (Madison, Wis.)) was added to each well. Following a 10 min incubation with shaking, luminescence was measured using a Victor Wallac Luminometer.

[5] = tested on: IL-6; test: IL-6 in LPS-induced PBMCs / CD14+ monocytes, Meso Scale assay; settings: 0.1 μM
Description: as §1, with “FIG. 3” for “FIG. 2”, “against IL-6” for “against IL-1-beta”, “in CD14,” for “in CD14”, “DMSO. Cells were treated with compound (at the indicated concentrations) or 10 μM pomalidomide.” for “DMSO.”
as §2, §3

[6] = tested on: Molm-13 cells; test: Cell viability assay (CellTiter-Glo), Molm-13 cells; settings: Homo sapiens, 72 h, 3 days; for viability at 10 µM: MOLM-13, 10 μM; for viability at 1 µM: MOLM-13, 1 μM
Description: FIG. 5 represents antiproliferative activity in Molm-13 cells. The cells were incubated with Compound 1, 2, or 3 (at the indicated concentration), DMSO, or pomalidomide. Compound activity was measured based on the signal from remaining viable cells.
as §4, §5

[7] = tested on: TNF-α; test: TNF-alpha in LPS-induced PBMCs / CD14+ monocytes, Meso Scale assay; settings: 0.1 μM
Description: as §1, with “FIG. 4” for “FIG. 2”, “against TNF-alpha” for “against IL-1-beta”, “in CD14,” for “in CD14”, “protocol. The negative” for “protocol. Negative”, “DMSO. Cells were treated with compound (at the indicated concentrations) or 10 μM pomalidomide.” for “DMSO.”
as §2, §3

Structure (SMILES) | GSPT1 protein level (% of DMSO control) at 0.1 µM [2] [%] | GSPT1 protein level (% of DMSO control) at 1 µM [2] [%] | inhibition at 0.1 µM [1] [%] | fold induction at 0.1 µM [3] | viability at 1 µM [4] [%] | viability at 10 µM [4] [%] | inhibition at 0.1 µM [5] [%] | viability at 10 µM [6] [%] | inhibition at 0.1 µM [7] [%] | viability at 1 µM [6] [%]
Cc1ccc(N(C)C(=O)NCc2ccc3c(c2)CN([C@H]2CCCC(=O)NC2=O)C3=O)cc1Cl [Compound 21, (S)-1-(3-chloro-4-methylphenyl)-3-((2-(2,7-dioxoazepan-3-yl)-1-oxoisoindolin-5-yl)methyl)-1-methylurea] | 126 | 134 | 27 | 0.9 | 95.5 | 45.3 | 18 | 25 | 20 | –
Cc1ccc(NC(=O)NCCc2cccc3c2CN([C@H]2CCCC(=O)NC2=O)C3=O)cc1Cl [Compound 23, (S)-1-(3-chloro-4-methylphenyl)-3-(2-(2-(2,7-dioxoazepan-3-yl)-1-oxoisoindolin-4-yl)ethyl)urea] | 147 | 105 | 21 | 0.8 | – | 25.1 | 0 | 96 | 25 | –
O=C1CCC[C@H](N2Cc3cc(CNC(=O)C(F)(F)c4ccc(F)cc4)ccc3C2=O)C(=O)N1 [Compound 25, (S)—N-((2-(2,7-dioxoazepan-3-yl)-1-oxoisoindolin-5-yl)methyl)-2,2-difluoro-2-(4-fluorophenyl)acetamide] | 98.1 | 63.5 | 38 | 1.4 | 88.1 | 26.6 | 12 | 96 | 36 | –

The next lines start with results.

GSPT1 protein level (% of DMSO control) at 0.1 µM [2] [%] | GSPT1 protein level (% of DMSO control) at 1 µM [2] [%] | Structure (SMILES) | inhibition at 0.1 µM [1] [%] | fold induction at 0.1 µM [3] | viability at 1 µM [4] [%] | viability at 10 µM [4] [%] | inhibition at 0.1 µM [5] [%] | viability at 10 µM [6] [%] | inhibition at 0.1 µM [7] [%] | viability at 1 µM [6] [%]
22.1 | 5.56 | Cc1ccc(NC(=O)NCc2cc3c(cc2F)C(=O)N([C@H]2CCCC(=O)NC2=O)C3)cc1Cl [Compound 22, (S)-1-(3-chloro-4-methylphenyl)-3-((2-(2,7-dioxoazepan-3-yl)-6-fluoro-1-oxoisoindolin-5-yl)methyl)urea] | 82 | 2 | 11.5 | 4.04 | 58 | – | 74 | 2.45
122 | 126 | Cc1ccc(NC(=O)NCCc2ccc3c(c2)CN([C@H]2CCCC(=O)NC2=O)C3=O)cc1Cl [Compound 24, (S)-1-(3-chloro-4-methylphenyl)-3-(2-(2-(2,7-dioxoazepan-3-yl)-1-oxoisoindolin-5-yl)ethyl)urea] | 26 | 0.9 | – | 2.81 | 0 | 98 | 42 | –
61.6 | 20.8 | Cc1ccc(NC(=S)NCc2ccc3c(c2)CN([C@H]2CCCC(=O)NC2=O)C3=O)cc1Cl [Compound 26, (S)-1-(3-chloro-4-methylphenyl)-3-((2-(2,7-dioxoazepan-3-yl)-1-oxoisoindolin-5-yl)methyl)thiourea] | 1 | 0.8 | 46.4 | 4.54 | 0 | – | 3 | 79
51.4 | 23.8 | Cc1ccc(NC(=O)NCc2ccc3c(c2)C(=O)N([C@H]2CCCC(=O)NC2=O)C3=O)cc1Cl [Compound 27, (S)-1-(3-chloro-4-methylphenyl)-3-((2-(2,7-dioxoazepan-3-yl)-1,3-dioxoisoindolin-5-yl)methyl)urea] | 9 | 1.1 | 101 | 28.2 | 0 | 89 | 19 | –
